The values below are quoted from earlier work in patent US20080014156A1, “PHOTOPROTECTANT COMPOSITION FOR PREVENTING SUNBURN AND SUN DAMAGE TO THE SKIN” (priority 2006, published 2008).

The conditions of this data set: relative to vitamin E.

The structures appear in SMILES notation.

As to `CC1=C(/C=C/C(C)=C/C=C/C(C)=C/C=C/C=C(C)/C=C/C=C(C)/C=C/C2=C(C)C(=O)[C@@H](O)CC2(C)C)C(C)(C)C[C@H](O)C1=O` [Astaxanthin], the “antioxidant effectiveness compared with vitamin E” value is reported as “up to 550 times”.
